Source: ChEMBL document CHEMBL3739317, “Design of new phenothiazine-thiadiazole hybrids via molecular hybridization approach for the development of potent antitubercular agents” (Eur J Med Chem, 2015)
Values after ≈ are worked out from the molar mass of the structure shown. Active and inactive are the calls of the source. The rule behind the calls is not given here.

Legend:
[1] = system: Vero; experiment: Cytotoxicity against African green monkey Vero cells after 72 hrs by MTT assay; assay type: cell-based; conditions: Chlorocebus sabaeus
[2] = Selectivity index, ratio of IC50 for African green monkey Vero cells to MIC for Mycobacterium tuberculosis H37Rv ATCC 27294; assay type: toxicity, cell-based
[3] = system: Mycobacterium tuberculosis; experiment: Antimycobacterial activity against Mycobacterium tuberculosis H37Rv ATCC 27294 after 5 days by microplate alamar blue assay; assay type: functional; conditions: H37Rv ATCC 27294, 120 h
[4] = system: Escherichia coli; experiment: Antibacterial activity against Escherichia coli at 75 ug/ml after 18 to 24 hrs by disc diffusion method; assay type: functional; conditions: read-out: IZ
[5] = system: Escherichia coli; experiment: Antibacterial activity against Escherichia coli at 50 ug/ml after 18 to 24 hrs by disc diffusion method; assay type: functional; conditions: read-out: IZ
[6] = system: Staphylococcus aureus; experiment: Antibacterial activity against Staphylococcus aureus at 75 ug/ml after 18 to 24 hrs by disc diffusion method; assay type: functional; conditions: for zone of inhibition at 75 µg/mL: read-out: IZ
[7] = system: Staphylococcus aureus; experiment: Antibacterial activity against Staphylococcus aureus at 50 ug/ml after 18 to 24 hrs by disc diffusion method; assay type: functional; conditions: for zone of inhibition at 50 µg/mL: read-out: IZ
[8] = system: Pseudomonas aeruginosa; experiment: Antibacterial activity against Pseudomonas aeruginosa at 75 ug/ml after 18 to 24 hrs by disc diffusion method; assay type: functional; conditions: read-out: IZ
[9] = system: Pseudomonas aeruginosa; experiment: Antibacterial activity against Pseudomonas aeruginosa at 50 ug/ml after 18 to 24 hrs by disc diffusion method; assay type: functional; conditions: read-out: IZ

Row | Compound | IC50 [1] | selectivity ratio [2] | MIC [3] | zone of inhibition at 75 µg/mL [4] | zone of inhibition at 50 µg/mL [5] | zone of inhibition at 75 µg/mL [6] | zone of inhibition at 50 µg/mL [7] | zone of inhibition at 75 µg/mL [8] | zone of inhibition at 50 µg/mL [9] | inhibition zone (IZ) [6] | inhibition zone (IZ) [7]
1 | Cc1nn(CC(=O)N2c3ccccc3Sc3ccc(Cl)cc32)c(=N)s1 | 470 mg/L (≈ 1210 µM) | 294 | 1.6 mg/L (≈ 4.11 µM) | 16 mm | 14 mm | 13 mm | 10 mm | 13 mm | 9 mm |  | 
2 | Cc1ccc(-c2nn(CC(=O)N3c4ccccc4Sc4ccccc43)c(=N)s2)cc1 | 215 mg/L (≈ 499 µM) | 269 | 0.8 mg/L (≈ 1.86 µM) | 27 mm | 24 mm | 21 mm | 16 mm | 11 mm | 9 mm |  | 
3 | O=C(O)c1cn(C2CC2)c2cc(N3CCNCC3)c(F)cc2c1=O [CIPROFLOXACIN] |  |  | 3.12 mg/L (≈ 9.43 µM) | 32 mm | 27 mm | 26 mm | 21 mm | 21 mm | 18 mm |  | 
4 | COc1ccc(-c2nn(CC(=O)N3c4ccccc4Sc4ccc(C(F)(F)F)cc43)c(=N)s2)cc1OC |  |  | 50 mg/L (≈ 91.8 µM) | 10 mm | 8 mm | 7 mm | 4 mm | 9 mm | 6 mm |  | 
5 | Cc1nn(CC(=O)N2c3ccccc3Sc3ccc(C(F)(F)F)cc32)c(=N)s1 | 350 mg/L (≈ 828 µM) | 219 | 1.6 mg/L (≈ 3.79 µM) | 20 mm | 15 mm | 17 mm | 14 mm | 15 mm | 12 mm |  | 
6 | COc1ccc(-c2nn(CC(=O)N3c4ccccc4Sc4ccc(Cl)cc43)c(=N)s2)cc1OC |  |  | 50 mg/L (≈ 97.8 µM) | 8 mm | 4 mm | 8 mm | 6 mm | 6 mm | 4 mm |  | 
7 | N=c1sc(-c2cccs2)nn1CC(=O)N1c2ccccc2Sc2ccc(Cl)cc21 |  |  | 50 mg/L (≈ 109 µM) | 8 mm | 4 mm |  |  | 11 mm | 7 mm | inactive | inactive
8 | CC[C@@H](CO)NCCN[C@@H](CC)CO [ETHAMBUTOL] |  |  | 3.12 mg/L (≈ 15.3 µM) |  |  |  |  |  |  |  | 
9 | N=c1sc(-c2cccs2)nn1CC(=O)N1c2ccccc2Sc2ccccc21 |  |  | 50 mg/L (≈ 118 µM) | 7 mm | 6 mm |  |  | 4 mm | 2 mm | inactive | inactive
10 | N=c1sc(-c2ccc(Cl)cc2)nn1CC(=O)N1c2ccccc2Sc2ccc(C(F)(F)F)cc21 |  |  | 25 mg/L (≈ 48.2 µM) | 12 mm | 11 mm | 13 mm | 11 mm | 14 mm | 9 mm |  | 
11 | Cc1ccc(-c2nn(CC(=O)N3c4ccccc4Sc4ccc(Cl)cc43)c(=N)s2)cc1 |  |  | 50 mg/L (≈ 108 µM) | 9 mm | 7 mm | 12 mm | 10 mm | 7 mm | 4 mm |  | 
12 | Cc1nn(CC(=O)N2c3ccccc3Sc3ccccc32)c(=N)s1 | 433 mg/L (≈ 1220 µM) | 271 | 1.6 mg/L (≈ 4.51 µM) | 25 mm | 20 mm | 26 mm | 22 mm | 25 mm | 20 mm |  | 
13 | NNC(=O)c1ccncc1 [ISONIAZID] |  |  | 0.1 mg/L (≈ 0.729 µM) |  |  |  |  |  |  |  | 
14 | CCCc1nn(CC(=O)N2c3ccccc3Sc3ccc(C(F)(F)F)cc32)c(=N)s1 | 238 mg/L (≈ 529 µM) | 76.4 | 3.12 mg/L (≈ 6.94 µM) | 9 mm | 6 mm | 11 mm | 7 mm | 7 mm | 3 mm |  | 
15 | Cc1ccc(-c2nn(CC(=O)N3c4ccccc4Sc4ccc(C(F)(F)F)cc43)c(=N)s2)cc1 |  |  | 50 mg/L (≈ 100 µM) | 13 mm | 11 mm | 11 mm | 9 mm | 9 mm | 6 mm |  | 
16 | N=c1sc(-c2ccc(Cl)cc2)nn1CC(=O)N1c2ccccc2Sc2ccccc21 |  |  | 50 mg/L (≈ 111 µM) | 10 mm | 8 mm | 9 mm | 7 mm | 10 mm | 7 mm |  | 
17 | CCCc1nn(CC(=O)N2c3ccccc3Sc3ccc(Cl)cc32)c(=N)s1 | 245 mg/L (≈ 588 µM) | 306 | 0.8 mg/L (≈ 1.92 µM) | 12 mm | 8 mm | 10 mm | 8 mm | 12 mm | 10 mm |  | 
18 | N=c1sc(-c2ccc(F)cc2)nn1CC(=O)N1c2ccccc2Sc2ccc(Cl)cc21 | 465 mg/L (≈ 992 µM) | 149 | 3.12 mg/L (≈ 6.66 µM) | 12 mm | 7 mm | 9 mm | 5 mm | 10 mm | 7 mm |  | 
19 | N=c1sc(-c2cccs2)nn1CC(=O)N1c2ccccc2Sc2ccc(C(F)(F)F)cc21 |  |  | 50 mg/L (≈ 102 µM) | 10 mm | 8 mm | 8 mm | 5 mm | 12 mm | 8 mm |  | 
20 | CCCc1nn(CC(=O)N2c3ccccc3Sc3ccccc32)c(=N)s1 | 252 mg/L (≈ 658 µM) | 157 | 1.6 mg/L (≈ 4.18 µM) | 14 mm | 11 mm | 16 mm | 12 mm | 15 mm | 11 mm |  | 
21 | N=c1sc(-c2ccc(Cl)cc2)nn1CC(=O)N1c2ccccc2Sc2ccc(Cl)cc21 | 757 mg/L (≈ 1560 µM) | 473 | 1.6 mg/L (≈ 3.3 µM) | 15 mm | 12 mm | 17 mm | 15 mm | 20 mm | 15 mm |  | 
22 | COc1ccc(-c2nn(CC(=O)N3c4ccccc4Sc4ccccc43)c(=N)s2)cc1OC |  |  | 12.5 mg/L (≈ 26.2 µM) | 16 mm | 13 mm | 21 mm | 18 mm | 25 mm | 20 mm |  | 
23 | N=c1sc(-c2ccc(F)cc2)nn1CC(=O)N1c2ccccc2Sc2ccccc21 | 247 mg/L (≈ 568 µM) | 79.1 | 3.12 mg/L (≈ 7.19 µM) | 11 mm | 8 mm | 8 mm | 5 mm | 12 mm | 8 mm |  | 
24 | CN[C@@H]1[C@H](O[C@H]2[C@H](O[C@H]3[C@H](O)[C@@H](O)[C@H](N=C(N)N)[C@@H](O)[C@@H]3N=C(N)N)O[C@@H](C)[C@]2(O)C=O)O[C@@H](CO)[C@H](O)[C@H]1O [STREPTOMYCIN] |  |  | 6.25 mg/L (≈ 10.7 µM) |  |  |  |  |  |  |  | 
25 | N=c1sc(-c2ccc(F)cc2)nn1CC(=O)N1c2ccccc2Sc2ccc(C(F)(F)F)cc21 | 733 mg/L (≈ 1460 µM) | 458 | 1.6 mg/L (≈ 3.18 µM) | 11 mm | 9 mm | 10 mm | 7 mm | 13 mm | 7 mm |  | 
